Reference: patent US11278682B2, “Device and method for aerosolized delivery of substance to a natural orifice of the body” (SIPNOSE LTD., priority 2014, dated 2022)

Tested on: patients
Experiment: Midazolam as pre-anesthetic drug: effectiveness, safety and user compliance, SipNose vs commercial nasal pump
Format: in vivo, human
Conditions: for BIS value (minimum after administration): 8 patients
Experimental: Midazolam was administered as a pre-anesthetic drug as a part of premeditation to subjects that needed to be anesthetized prior to the beginning a surgical procedure. Administration of the pre-anesthetic drug was done intranasally instead of the routine PO/IM (oral/intramuscular) route used by the anesthesiologist from the hospital.
The intranasal administration was given by one of the following medical devices: a SipNose nasal device (FIG. 93A) or a commercial nasal pump (FIG. 93B). A single dose of 1×600 microliter (μl) was given with the SipNose device, while 6×100 μl doses were given with a commercial nasal pump. An exemplary administration for the SipNose device is shown in FIG. 94A, while an exemplary administration for the commercial nasal pump is shown in FIG. 94B.
Eight low-risk patients (American Society of Anesthesiology physical status classification I or II) patients were included in each group. Clinical status of the patients, standard continuous monitoring of vital signs, and continuous bispectral index (BIS) monitoring was ongoing 5 minutes before intranasal administration and 30 minutes after.
The objective data consisted in minimum BIS value obtained after administration and time until minimum BIS. The subjective data consisted in physician feedback, swallowing of the drug appreciated by patient, sleeping score appreciated by physician.
Sedation Score was evaluated by physicians as a behavior tool to determine effectiveness of the dose that was given in each of the nasal administrations. Scoring was done according to the following criteria: 1=not Sleepy (not effective); 2=Sleepy/Calm (intermediate effect); 3=Sleeping (drug was effective).
Patients were asked to score if they felt the drug in their throat and/or felt a bitter taste in the throat after the administration of the drug.
The bitterness and swallowing were graded according to the following scale: 1=No swallowing/No bitter taste; 5=A meaningful amount was swallowed/Strong bitter taste.
The repeated administrations with the nasal pump were given with 30 s intervals between them to allow the drug to be absorbed in the nasal cavity before another dose was given.
The anesthesiologist in charge of the patients was asked to rate the overall experience with intranasal administration of midazolam. (1=very good; 5=Not satisfactory).

Cc1ncc2n1-c1ccc(Cl)cc1C(c1ccccc1F)=NC2 [Midazolam]
patients with Highly Effective sedation (Commercial Nasal Pump): 12.5% | patients with Intermediate Effect of sedation (Commercial Nasal Pump): 50% | patients with sedation Not Effective (Commercial Nasal Pump): 37.5% | patients with Highly Effective sedation (SipNose): 100% | Sedation Score (1 not sleepy, 2 sleepy/calm, 3 sleeping) (SipNose group): 3 | BIS value (minimum after administration) (SipNose group, 1×600 μl): 74.50±3.196 | adverse events or safety issues (both administration procedures (SipNose and commercial nasal pump)): No adverse events or safety issues were reported | Sedation Score (1 not sleepy, 2 sleepy/calm, 3 sleeping) (commercial pump group): below 2 | BIS value (minimum after administration) (commercial pump group, 6×100 μl): 87.25±1.840
